The target of assay [1] is Calcium/calmodulin-dependent protein kinase type II subunit delta (Homo sapiens) (UniProt Q13557). The note with it: Compound concentration 1000.0 nM.
Assay [2] concerns the target Mitogen-activated protein kinase kinase kinase 12 (Homo sapiens) (UniProt Q12852). The note with it: Compound concentration 1000.0 nM.
Assay [3] has as its system Epidermal growth factor receptor (Homo sapiens), P00533 [UNDEFINED MUTATION]. The note with it: Compound concentration 1000.0 nM.
The target of assay [4] is Mitogen-activated protein kinase 6 (Homo sapiens) (UniProt Q16659). Conditions: Compound concentration 1000.0 nM.
The test system of assay [5] is Receptor-type tyrosine-protein kinase FLT3 (Homo sapiens), P36888 [UNDEFINED MUTATION]. The note with it: Compound concentration 1000.0 nM.
The target of assay [6] is Maternal embryonic leucine zipper kinase (Homo sapiens) (UniProt Q14680). The note with it: Compound concentration 1000.0 nM.
The target in assay [7] is Serine/threonine-protein kinase 26 (Homo sapiens) (UniProt Q9P289). Conditions: Compound concentration 1000.0 nM.
Chain of Serine/threonine-protein kinase 26 (Homo sapiens) (Q9P289 2-416 limits assumed): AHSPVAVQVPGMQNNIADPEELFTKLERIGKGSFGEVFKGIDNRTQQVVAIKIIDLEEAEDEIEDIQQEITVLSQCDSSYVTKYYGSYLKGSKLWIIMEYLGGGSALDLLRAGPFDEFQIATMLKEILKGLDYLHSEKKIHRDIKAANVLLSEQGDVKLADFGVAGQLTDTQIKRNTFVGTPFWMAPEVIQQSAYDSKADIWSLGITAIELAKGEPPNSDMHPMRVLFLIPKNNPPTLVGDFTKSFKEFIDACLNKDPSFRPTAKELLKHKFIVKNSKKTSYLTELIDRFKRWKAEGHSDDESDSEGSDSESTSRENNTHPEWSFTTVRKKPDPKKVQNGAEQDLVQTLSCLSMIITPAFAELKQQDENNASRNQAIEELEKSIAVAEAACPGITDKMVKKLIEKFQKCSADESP
Assay [8] concerns the target T1, Myosin-IIIb (Homo sapiens) (UniProt Q8WXR4).
T1 sequence (whole entry): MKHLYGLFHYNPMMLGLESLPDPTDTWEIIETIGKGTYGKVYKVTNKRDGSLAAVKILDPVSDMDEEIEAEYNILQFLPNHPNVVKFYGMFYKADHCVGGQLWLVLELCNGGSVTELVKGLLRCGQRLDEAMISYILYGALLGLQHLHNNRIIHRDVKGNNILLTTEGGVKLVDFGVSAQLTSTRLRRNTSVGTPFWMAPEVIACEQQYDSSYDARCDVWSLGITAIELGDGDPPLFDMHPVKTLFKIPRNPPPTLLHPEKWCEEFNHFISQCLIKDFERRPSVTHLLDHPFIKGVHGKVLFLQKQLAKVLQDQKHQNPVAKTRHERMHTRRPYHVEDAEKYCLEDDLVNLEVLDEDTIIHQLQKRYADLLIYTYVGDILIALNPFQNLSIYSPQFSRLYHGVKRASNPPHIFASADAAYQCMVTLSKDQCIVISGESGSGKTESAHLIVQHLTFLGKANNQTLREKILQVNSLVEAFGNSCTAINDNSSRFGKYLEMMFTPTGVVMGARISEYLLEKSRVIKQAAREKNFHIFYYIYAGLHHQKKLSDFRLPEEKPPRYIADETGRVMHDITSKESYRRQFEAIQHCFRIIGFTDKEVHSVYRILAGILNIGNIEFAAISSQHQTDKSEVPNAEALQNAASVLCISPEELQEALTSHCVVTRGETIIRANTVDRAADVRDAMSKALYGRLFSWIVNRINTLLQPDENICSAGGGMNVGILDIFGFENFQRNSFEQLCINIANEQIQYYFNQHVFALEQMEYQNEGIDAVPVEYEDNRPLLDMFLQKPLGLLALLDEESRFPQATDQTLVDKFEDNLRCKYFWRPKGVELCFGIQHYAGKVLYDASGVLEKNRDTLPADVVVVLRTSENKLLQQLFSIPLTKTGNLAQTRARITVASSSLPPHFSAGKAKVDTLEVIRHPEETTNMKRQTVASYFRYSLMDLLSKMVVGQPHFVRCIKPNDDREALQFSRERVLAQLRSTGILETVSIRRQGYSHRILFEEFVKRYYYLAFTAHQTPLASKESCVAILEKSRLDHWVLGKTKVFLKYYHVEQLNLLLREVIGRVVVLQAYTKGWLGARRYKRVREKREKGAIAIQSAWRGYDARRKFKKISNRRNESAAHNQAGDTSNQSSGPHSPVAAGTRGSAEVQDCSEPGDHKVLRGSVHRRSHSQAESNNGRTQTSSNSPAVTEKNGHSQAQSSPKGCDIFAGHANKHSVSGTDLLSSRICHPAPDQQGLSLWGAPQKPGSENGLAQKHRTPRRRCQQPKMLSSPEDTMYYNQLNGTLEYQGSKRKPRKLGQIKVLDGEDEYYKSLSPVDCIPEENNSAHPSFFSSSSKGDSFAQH
The note with it: Compound concentration 1000.0 nM.

For assay [9], the target named is Phosphatidylinositol 4-phosphate 5-kinase type-1 gamma (Homo sapiens) (UniProt O60331). Conditions: Compound concentration 1000.0 nM.
Chain of Phosphatidylinositol 4-phosphate 5-kinase type-1 gamma (Homo sapiens) (O60331 whole entry): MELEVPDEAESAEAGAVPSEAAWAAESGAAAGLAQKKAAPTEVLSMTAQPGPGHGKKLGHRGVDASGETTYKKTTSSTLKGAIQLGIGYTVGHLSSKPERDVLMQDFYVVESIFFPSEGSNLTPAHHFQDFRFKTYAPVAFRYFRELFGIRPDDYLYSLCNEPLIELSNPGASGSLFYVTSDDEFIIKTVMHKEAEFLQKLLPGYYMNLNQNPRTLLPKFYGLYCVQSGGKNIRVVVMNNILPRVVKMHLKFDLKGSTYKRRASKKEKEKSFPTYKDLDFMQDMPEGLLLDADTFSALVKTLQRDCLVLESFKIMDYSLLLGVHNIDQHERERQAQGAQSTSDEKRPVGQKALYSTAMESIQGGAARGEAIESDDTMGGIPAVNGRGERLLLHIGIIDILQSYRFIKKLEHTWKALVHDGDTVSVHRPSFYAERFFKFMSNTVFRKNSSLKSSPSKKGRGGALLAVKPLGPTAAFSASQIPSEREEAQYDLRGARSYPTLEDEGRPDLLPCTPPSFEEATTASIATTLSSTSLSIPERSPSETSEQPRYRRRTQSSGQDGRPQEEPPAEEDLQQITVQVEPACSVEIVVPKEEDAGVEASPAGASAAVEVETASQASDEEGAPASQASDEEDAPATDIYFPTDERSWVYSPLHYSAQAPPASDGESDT
In assay [10] the target is Dual serine/threonine and tyrosine protein kinase (Homo sapiens) (UniProt Q6XUX3). Conditions: Compound concentration 1000.0 nM.
Assay [11] addresses T2, Tyrosine-protein kinase Tec (Homo sapiens) (UniProt P42680).
T2 sequence (whole entry): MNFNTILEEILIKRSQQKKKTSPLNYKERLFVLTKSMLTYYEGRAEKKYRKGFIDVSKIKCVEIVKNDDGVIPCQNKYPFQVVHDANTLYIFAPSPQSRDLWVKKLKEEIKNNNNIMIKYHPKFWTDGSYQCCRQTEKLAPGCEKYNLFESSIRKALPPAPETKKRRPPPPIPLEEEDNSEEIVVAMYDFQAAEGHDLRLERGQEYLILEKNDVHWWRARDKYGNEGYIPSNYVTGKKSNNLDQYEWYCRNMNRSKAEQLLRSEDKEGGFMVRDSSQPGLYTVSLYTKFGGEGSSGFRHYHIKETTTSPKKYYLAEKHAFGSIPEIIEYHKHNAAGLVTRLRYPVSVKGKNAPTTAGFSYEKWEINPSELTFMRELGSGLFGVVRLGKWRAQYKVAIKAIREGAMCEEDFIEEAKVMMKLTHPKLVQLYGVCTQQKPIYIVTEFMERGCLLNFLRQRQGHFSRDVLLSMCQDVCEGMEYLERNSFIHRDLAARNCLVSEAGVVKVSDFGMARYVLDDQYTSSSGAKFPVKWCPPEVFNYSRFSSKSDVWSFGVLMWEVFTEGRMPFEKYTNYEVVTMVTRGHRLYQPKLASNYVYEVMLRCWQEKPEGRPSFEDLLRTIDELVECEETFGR
The note with it: Compound concentration 1000.0 nM.

In assay [12] the target is Serine/threonine-protein kinase TNNI3K (Homo sapiens) (UniProt Q59H18). Conditions: Compound concentration 1000.0 nM.
Chain of Serine/threonine-protein kinase TNNI3K (Homo sapiens) (Q59H18 whole entry): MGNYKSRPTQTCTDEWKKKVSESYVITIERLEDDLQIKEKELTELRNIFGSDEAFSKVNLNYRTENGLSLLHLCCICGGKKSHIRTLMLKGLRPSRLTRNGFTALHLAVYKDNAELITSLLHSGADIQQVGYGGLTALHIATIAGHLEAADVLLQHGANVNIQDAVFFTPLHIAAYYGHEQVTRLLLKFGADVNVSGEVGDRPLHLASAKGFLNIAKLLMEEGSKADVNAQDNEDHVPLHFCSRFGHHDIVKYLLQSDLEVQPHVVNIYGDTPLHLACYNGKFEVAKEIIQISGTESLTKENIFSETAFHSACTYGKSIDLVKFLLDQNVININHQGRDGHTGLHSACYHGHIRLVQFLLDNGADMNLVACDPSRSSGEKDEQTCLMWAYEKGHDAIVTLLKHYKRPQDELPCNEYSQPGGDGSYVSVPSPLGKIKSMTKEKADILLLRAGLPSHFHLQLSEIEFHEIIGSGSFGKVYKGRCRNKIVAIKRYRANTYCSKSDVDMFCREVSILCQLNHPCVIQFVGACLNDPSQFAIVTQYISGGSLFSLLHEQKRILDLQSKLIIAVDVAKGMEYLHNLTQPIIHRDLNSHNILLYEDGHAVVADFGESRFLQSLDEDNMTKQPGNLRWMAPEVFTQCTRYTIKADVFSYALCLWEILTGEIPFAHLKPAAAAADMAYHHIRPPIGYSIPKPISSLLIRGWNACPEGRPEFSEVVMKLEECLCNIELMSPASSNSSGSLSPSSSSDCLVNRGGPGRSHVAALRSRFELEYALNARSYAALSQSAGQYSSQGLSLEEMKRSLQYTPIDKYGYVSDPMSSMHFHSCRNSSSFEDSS
The target of assay [13] is D(1B) dopamine receptor (Homo sapiens) (UniProt P21918). Conditions: Compound concentration 10.0 uM.
Chain of D(1B) dopamine receptor (Homo sapiens) (P21918 whole entry): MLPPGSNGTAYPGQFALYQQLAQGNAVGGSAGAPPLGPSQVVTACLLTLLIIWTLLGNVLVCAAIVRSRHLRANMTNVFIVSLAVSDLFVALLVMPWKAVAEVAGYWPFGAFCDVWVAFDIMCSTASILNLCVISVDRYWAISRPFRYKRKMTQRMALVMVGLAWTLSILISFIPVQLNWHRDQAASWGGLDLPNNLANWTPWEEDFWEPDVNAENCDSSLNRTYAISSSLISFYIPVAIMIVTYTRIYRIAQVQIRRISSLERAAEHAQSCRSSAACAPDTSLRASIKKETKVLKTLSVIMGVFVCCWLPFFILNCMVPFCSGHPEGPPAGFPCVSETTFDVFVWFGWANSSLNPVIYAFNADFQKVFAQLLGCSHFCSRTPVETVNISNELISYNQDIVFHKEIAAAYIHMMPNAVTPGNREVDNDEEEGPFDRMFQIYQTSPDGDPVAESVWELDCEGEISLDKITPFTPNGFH

The values below come from ChEMBL document CHEMBL4507319 (2021).

Chain of Epidermal growth factor receptor (Homo sapiens), P00533 [UNDEFINED MUTATION] (P00533 whole entry, looked up, change not shown): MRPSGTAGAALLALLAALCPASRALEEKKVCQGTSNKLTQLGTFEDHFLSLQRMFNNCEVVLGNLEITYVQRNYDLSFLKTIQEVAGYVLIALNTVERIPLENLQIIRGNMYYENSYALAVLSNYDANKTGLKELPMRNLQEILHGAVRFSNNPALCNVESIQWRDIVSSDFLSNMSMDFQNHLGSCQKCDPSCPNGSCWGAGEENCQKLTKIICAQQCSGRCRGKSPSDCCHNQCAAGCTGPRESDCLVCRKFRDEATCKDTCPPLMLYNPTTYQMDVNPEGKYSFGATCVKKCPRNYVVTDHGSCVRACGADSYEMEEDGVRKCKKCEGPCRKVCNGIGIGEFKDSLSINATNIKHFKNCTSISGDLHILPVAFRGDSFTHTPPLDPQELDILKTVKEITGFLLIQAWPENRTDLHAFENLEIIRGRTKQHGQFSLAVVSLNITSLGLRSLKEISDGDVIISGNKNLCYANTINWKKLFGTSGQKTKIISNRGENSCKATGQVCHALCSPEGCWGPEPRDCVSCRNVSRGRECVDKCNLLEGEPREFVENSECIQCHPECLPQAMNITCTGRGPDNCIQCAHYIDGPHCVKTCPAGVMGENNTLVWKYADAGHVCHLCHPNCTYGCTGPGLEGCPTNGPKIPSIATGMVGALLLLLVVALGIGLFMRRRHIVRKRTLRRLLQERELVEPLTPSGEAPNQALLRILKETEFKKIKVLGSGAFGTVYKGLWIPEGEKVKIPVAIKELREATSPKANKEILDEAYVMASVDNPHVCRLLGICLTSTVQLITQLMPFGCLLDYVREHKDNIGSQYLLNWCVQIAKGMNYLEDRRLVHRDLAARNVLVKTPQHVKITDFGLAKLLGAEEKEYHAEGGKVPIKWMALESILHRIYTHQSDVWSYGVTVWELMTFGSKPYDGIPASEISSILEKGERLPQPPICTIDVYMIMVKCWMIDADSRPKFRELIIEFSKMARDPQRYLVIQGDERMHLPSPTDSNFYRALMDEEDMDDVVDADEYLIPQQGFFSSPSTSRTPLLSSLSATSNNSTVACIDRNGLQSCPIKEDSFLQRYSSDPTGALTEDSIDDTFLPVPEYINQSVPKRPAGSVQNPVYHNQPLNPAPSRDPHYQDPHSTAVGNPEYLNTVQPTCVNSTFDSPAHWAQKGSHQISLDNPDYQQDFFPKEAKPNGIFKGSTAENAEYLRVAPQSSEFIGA
Chain of Calcium/calmodulin-dependent protein kinase type II subunit delta (Homo sapiens) (Q13557 whole entry): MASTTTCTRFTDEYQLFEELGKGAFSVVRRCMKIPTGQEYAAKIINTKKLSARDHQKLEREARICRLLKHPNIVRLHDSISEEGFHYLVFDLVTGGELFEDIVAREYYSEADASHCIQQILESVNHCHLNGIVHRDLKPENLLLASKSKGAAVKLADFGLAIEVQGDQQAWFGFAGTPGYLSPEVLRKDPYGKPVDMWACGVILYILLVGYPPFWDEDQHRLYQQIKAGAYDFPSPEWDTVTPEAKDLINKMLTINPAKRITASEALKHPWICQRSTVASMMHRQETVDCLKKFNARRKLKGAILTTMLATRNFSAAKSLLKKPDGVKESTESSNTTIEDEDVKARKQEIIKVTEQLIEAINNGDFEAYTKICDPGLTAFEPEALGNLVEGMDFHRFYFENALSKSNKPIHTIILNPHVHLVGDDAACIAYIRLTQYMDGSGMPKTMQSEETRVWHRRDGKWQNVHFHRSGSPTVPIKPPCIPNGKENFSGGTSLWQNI
Chain of Mitogen-activated protein kinase kinase kinase 12 (Homo sapiens) (Q12852 whole entry): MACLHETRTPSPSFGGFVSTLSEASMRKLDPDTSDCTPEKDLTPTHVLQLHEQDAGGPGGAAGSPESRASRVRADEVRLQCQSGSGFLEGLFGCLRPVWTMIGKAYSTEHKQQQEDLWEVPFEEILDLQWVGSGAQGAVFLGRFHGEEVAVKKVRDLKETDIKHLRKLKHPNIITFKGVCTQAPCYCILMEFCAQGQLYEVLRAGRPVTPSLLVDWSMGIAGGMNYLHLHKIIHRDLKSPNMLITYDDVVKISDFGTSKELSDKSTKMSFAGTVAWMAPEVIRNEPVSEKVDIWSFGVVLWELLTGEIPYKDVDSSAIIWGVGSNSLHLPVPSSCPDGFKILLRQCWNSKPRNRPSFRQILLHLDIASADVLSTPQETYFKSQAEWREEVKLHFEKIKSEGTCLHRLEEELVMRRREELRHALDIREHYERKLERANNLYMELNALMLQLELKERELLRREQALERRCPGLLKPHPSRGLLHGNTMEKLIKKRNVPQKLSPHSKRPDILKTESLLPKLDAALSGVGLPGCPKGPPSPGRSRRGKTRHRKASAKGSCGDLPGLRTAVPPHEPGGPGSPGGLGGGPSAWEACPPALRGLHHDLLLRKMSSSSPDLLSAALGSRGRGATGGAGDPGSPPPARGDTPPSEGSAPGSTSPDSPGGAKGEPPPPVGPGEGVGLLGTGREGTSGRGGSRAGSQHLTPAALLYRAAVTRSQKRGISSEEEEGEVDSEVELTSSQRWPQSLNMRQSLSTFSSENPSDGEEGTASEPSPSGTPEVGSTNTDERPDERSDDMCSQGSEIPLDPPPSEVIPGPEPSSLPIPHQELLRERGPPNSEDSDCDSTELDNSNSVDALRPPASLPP

For `CC1=C(C#N)C(c2ccc3c(c2)c(NC(=O)c2ccccc2C)nn3C)C(C#N)=C(C)N1` [BAY-974], the residual activity in [1] was 100%; in [2], 80%; in assay [3] it was 78%; in assay [4] it was 97%; in assay [5] it was 96%; in assay [6] it was 81%. Further, the residual activity in [7] was 100%; in assay [8] it was 100%; in assay [9], 91%; in [10] it was 72%; in assay [11], 100%; in assay [12], 96%. Also, the inhibition (in general, how much of the control response was suppressed) in assay [13] was 14.6%.

With `CCc1ccccc1C(=O)Nc1n[nH]c2c(C)c(F)c(C3C(C#N)=C(C)N(C)C(C)=C3C#N)cc12` [BAY-3827], the residual activity is 78% in assay [1]; 94% in assay [2]; 29% in assay [3]; 100% in assay [4]; 11% in assay [5]; 43% in assay [6]. In addition, the residual activity in assay [7] is 98%; in assay [8], 77%; in assay [9] it was 56%; in [10], 95%; in assay [11], 91%; in assay [12], 87%. Also, the inhibition in [13] was 8.47%.
